Test results from ChEMBL document CHEMBL5653631, “A Potent and Selective ULK1 Inhibitor Suppresses Autophagy and Sensitizes Cancer Cells to Nutrient Stress” (iScience, 2018).
Blank lines part the entries; values can stand above or below the molecule they belong to.

Key:
[1] = biological target: Calcium/calmodulin-dependent protein kinase type 1D (Homo sapiens) (UniProt Q8IU85); assay: Inhibition of human recombinant CaMK1d at 500 nM in presence of ATP by radiometric assay relative to control
[2] = biological target: T1, Serine/threonine-protein kinase D3 (Homo sapiens) (UniProt O94806); assay: Inhibition of human recombinant PKD3 at 500 nM related to control ULK1
T1 sequence (whole entry): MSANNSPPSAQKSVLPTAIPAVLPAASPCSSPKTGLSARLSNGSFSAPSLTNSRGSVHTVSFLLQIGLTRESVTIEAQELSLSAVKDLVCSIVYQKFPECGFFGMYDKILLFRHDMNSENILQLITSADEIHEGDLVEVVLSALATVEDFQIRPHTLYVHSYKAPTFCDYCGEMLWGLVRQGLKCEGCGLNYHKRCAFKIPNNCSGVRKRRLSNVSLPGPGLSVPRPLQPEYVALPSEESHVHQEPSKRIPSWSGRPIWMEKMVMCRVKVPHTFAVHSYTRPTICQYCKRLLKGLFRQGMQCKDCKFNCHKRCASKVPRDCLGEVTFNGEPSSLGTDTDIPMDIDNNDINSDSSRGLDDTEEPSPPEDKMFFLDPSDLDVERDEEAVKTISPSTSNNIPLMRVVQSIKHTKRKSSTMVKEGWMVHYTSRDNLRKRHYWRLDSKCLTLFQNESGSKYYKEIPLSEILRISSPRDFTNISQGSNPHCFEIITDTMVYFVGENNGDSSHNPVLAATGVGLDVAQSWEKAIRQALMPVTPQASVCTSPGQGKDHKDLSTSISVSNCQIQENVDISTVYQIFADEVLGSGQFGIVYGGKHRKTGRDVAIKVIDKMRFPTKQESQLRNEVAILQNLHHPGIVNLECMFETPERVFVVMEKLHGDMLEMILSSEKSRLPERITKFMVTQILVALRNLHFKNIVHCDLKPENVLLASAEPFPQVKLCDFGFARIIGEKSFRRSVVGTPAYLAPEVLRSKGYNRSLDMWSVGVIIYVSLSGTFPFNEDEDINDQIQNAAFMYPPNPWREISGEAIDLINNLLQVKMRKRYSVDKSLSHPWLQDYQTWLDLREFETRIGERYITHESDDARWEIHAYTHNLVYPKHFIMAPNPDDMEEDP

[3] = biological target: Mitogen-activated protein kinase kinase kinase 10 (Homo sapiens) (UniProt Q02779); assay: Inhibition of human recombinant MLK2 at 15 nM in presence of ATP by radiometric assay relative to control
[4] = biological target: T2, Serine/threonine-protein kinase 3 (Homo sapiens) (UniProt Q13188); assay: Inhibition of human recombinant MST2 at 15 nM in presence of ATP by radiometric assay relative to control
T2 sequence (whole entry): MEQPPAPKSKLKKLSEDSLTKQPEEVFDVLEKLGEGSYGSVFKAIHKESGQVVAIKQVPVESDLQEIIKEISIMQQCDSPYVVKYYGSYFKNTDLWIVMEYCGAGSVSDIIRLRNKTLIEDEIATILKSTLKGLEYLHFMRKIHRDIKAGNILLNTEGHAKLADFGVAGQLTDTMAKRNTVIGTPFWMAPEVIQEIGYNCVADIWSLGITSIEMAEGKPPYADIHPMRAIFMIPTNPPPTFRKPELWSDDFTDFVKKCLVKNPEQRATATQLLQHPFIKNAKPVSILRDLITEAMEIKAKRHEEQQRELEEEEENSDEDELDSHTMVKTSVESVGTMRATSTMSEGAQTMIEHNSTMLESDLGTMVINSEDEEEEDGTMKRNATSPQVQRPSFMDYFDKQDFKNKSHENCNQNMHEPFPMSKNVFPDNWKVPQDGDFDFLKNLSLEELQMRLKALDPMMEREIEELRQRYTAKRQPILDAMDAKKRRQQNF

[5] = biological target: Homeodomain-interacting protein kinase 2 (Homo sapiens) (UniProt Q9H2X6); assay: Inhibition of human recombinant HIPK2 at 15 nM related to control ULK1
[6] = biological target: Receptor-interacting serine/threonine-protein kinase 2 (Homo sapiens) (UniProt O43353); assay: Inhibition of human recombinant RIPK2 at 15 nM related to control ULK1
[7] = biological target: Dual specificity mitogen-activated protein kinase kinase 1 (Homo sapiens) (UniProt Q02750); assay: Inhibition of human recombinant MAP2K1 at 40 nM in presence of ATP by radiometric assay relative to control
[8] = biological target: Serine/threonine-protein kinase 24 (Homo sapiens) (UniProt Q9Y6E0); assay: Inhibition of human recombinant MST3 at 40 nM in presence of ATP by radiometric assay relative to control
[9] = biological target: cAMP-dependent protein kinase catalytic subunit beta (Homo sapiens) (UniProt P22694); assay: Inhibition of human recombinant PKACbeta at 40 nM in presence of ATP by radiometric assay relative to control
[10] = biological target: Macrophage colony-stimulating factor 1 receptor (Homo sapiens) (UniProt P07333); assay: Inhibition of human recombinant FMS at 40 nM related to control ULK1
[11] = biological target: eIF-2-alpha kinase GCN2 (Homo sapiens) (UniProt Q9P2K8); assay: Inhibition of human recombinant GCN2 at 40 nM related to control ULK1
[12] = biological target: T3, Testis-specific serine/threonine-protein kinase 1 (Homo sapiens) (UniProt Q9BXA7); assay: Inhibition of human recombinant TSSK1 at 40 nM related to control ULK1
T3 sequence (whole entry): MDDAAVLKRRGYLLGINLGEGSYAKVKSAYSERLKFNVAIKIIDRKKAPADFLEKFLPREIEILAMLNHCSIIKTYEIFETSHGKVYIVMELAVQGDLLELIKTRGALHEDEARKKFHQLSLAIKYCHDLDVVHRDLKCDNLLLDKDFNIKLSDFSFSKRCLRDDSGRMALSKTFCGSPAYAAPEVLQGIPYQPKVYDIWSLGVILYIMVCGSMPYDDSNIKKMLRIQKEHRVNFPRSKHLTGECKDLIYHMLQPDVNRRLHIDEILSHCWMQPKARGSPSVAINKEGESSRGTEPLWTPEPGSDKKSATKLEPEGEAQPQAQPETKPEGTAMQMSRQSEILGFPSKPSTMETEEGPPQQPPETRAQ

[13] = biological target: Serine/threonine-protein kinase 32C (Homo sapiens) (UniProt Q86UX6); assay: Inhibition of human recombinant YANK3 at 40 nM related to control ULK1
Sequence of Serine/threonine-protein kinase 32C (Homo sapiens) (Q86UX6 whole entry): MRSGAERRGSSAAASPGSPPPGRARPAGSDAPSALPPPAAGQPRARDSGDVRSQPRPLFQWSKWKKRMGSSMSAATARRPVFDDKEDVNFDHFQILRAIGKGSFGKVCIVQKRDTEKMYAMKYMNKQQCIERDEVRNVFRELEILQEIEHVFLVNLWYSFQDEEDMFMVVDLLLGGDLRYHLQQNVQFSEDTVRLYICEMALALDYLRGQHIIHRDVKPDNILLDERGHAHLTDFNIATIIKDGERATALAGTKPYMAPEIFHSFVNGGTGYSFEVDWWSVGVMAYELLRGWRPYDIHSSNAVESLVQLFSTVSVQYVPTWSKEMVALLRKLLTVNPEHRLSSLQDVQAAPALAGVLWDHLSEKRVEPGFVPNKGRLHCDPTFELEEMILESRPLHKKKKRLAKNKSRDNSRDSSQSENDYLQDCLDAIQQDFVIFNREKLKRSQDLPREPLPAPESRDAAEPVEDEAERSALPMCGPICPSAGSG

Sequence of Mitogen-activated protein kinase kinase kinase 10 (Homo sapiens) (Q02779 whole entry, looked up): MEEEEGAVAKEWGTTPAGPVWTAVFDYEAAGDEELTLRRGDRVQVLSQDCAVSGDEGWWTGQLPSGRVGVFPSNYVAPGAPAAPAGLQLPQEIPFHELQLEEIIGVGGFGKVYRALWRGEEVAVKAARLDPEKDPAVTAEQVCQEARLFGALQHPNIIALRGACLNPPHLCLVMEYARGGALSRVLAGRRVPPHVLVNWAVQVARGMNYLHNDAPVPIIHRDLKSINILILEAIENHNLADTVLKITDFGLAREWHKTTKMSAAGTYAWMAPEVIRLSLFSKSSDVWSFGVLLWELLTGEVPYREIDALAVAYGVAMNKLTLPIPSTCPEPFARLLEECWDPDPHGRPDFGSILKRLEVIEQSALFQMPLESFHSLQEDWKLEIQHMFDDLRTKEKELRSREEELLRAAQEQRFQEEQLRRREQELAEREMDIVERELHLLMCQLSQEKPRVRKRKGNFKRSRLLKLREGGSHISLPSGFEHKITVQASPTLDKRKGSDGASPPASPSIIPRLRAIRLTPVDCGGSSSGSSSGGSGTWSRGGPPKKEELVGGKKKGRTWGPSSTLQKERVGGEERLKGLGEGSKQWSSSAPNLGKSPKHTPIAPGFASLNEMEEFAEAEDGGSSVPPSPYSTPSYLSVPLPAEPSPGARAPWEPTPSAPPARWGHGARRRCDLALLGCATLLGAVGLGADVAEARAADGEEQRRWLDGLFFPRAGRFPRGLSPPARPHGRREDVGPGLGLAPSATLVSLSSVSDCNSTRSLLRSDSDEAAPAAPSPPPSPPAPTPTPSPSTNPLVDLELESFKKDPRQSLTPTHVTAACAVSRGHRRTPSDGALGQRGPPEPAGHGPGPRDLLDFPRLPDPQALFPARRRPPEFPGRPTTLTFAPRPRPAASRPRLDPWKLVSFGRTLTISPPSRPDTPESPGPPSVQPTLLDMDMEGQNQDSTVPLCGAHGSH
Sequence of Homeodomain-interacting protein kinase 2 (Homo sapiens) (Q9H2X6 whole entry, looked up): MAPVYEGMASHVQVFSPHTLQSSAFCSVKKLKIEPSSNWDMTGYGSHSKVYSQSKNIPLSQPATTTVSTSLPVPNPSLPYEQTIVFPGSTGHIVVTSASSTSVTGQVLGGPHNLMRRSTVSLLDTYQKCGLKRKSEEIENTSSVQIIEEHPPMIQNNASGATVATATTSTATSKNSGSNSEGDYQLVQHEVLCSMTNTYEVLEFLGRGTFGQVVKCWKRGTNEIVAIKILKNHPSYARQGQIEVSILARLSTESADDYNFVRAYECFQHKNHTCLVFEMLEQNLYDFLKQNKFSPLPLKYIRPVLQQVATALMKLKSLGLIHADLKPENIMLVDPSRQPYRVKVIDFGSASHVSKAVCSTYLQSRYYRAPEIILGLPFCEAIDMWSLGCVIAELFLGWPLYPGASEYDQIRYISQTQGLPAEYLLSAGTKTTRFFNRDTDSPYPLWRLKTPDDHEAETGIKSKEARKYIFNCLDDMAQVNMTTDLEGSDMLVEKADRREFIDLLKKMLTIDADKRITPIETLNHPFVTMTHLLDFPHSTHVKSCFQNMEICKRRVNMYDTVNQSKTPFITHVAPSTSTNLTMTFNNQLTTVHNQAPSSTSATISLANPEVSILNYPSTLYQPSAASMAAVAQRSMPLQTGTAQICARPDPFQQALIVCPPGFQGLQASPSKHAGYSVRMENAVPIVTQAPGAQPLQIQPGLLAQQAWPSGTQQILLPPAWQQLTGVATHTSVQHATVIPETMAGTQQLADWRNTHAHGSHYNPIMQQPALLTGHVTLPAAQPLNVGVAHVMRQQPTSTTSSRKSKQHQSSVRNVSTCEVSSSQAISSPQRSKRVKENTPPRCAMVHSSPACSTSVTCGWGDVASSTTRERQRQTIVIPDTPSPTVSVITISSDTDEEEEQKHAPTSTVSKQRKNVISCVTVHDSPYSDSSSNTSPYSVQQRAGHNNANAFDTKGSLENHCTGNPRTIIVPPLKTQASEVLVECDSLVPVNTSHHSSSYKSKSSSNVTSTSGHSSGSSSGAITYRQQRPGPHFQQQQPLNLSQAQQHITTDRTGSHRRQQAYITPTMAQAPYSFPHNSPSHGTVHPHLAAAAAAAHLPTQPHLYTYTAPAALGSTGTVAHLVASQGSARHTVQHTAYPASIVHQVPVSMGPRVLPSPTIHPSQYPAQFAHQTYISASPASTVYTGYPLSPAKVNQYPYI
Sequence of Dual specificity mitogen-activated protein kinase kinase 1 (Homo sapiens) (Q02750 whole entry): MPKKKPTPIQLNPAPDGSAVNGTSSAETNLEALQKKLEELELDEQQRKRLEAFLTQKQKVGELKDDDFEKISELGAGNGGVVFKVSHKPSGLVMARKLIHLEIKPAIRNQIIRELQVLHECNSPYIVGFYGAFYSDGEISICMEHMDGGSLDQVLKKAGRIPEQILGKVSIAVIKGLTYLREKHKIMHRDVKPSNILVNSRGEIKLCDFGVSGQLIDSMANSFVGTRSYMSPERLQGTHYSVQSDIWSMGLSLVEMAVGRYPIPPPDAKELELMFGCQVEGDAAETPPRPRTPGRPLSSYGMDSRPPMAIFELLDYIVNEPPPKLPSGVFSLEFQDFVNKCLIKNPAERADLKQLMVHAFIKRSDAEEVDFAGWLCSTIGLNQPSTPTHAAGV
Sequence of Serine/threonine-protein kinase 24 (Homo sapiens) (Q9Y6E0 whole entry, looked up): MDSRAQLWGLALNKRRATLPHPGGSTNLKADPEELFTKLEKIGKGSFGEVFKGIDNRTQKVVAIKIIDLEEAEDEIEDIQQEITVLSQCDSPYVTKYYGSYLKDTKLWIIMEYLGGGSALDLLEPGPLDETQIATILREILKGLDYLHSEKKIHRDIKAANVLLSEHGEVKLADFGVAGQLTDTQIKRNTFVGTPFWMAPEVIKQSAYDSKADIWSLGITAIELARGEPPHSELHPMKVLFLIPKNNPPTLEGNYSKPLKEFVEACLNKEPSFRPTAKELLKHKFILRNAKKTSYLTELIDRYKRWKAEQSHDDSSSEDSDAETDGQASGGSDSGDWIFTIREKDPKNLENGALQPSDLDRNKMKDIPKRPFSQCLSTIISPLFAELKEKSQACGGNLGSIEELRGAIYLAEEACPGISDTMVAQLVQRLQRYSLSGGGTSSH
Sequence of Macrophage colony-stimulating factor 1 receptor (Homo sapiens) (P07333 whole entry): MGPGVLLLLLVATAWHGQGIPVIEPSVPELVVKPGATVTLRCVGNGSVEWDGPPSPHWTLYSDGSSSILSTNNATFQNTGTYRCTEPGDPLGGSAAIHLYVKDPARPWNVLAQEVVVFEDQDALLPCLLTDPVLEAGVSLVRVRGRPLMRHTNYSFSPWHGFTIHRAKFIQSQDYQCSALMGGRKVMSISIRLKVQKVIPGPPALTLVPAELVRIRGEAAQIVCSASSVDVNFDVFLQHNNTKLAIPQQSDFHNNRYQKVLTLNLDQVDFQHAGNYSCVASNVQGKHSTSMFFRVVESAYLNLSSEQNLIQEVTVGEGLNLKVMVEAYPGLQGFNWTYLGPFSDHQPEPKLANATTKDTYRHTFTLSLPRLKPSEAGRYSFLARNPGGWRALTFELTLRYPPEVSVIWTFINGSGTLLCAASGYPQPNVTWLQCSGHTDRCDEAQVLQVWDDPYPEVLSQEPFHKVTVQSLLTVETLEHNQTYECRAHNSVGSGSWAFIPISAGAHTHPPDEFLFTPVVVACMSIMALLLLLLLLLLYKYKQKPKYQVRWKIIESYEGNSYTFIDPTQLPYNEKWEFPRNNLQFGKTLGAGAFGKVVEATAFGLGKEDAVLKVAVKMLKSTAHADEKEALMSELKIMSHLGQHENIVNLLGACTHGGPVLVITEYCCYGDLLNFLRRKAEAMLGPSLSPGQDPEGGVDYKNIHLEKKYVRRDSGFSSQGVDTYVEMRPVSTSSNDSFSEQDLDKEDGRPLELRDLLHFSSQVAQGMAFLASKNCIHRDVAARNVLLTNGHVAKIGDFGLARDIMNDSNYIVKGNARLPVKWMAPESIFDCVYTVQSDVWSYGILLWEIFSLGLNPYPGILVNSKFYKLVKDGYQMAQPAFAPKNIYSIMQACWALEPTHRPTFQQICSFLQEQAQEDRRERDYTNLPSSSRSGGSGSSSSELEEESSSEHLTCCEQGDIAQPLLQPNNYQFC
Sequence of Calcium/calmodulin-dependent protein kinase type 1D (Homo sapiens) (Q8IU85 whole entry, looked up): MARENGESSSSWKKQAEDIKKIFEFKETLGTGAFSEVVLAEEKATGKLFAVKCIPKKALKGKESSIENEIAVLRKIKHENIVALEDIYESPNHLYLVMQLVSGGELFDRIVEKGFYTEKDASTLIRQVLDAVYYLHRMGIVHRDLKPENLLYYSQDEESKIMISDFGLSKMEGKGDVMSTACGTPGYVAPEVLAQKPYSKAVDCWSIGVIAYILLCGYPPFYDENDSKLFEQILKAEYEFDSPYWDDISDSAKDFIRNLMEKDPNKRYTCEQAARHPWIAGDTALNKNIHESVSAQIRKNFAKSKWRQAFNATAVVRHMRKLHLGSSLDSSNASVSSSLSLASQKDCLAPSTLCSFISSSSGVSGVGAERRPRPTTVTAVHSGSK

inhibition [1]: 5%
fold change (FC) [2]: 0
SMILES: CNC(=O)c1ccccc1Oc1nc(Nc2cc(OC)c(OC)c(OC)c2)ncc1Br

inhibition [3]: 12%
inhibition [4]: 3%
fold change (FC) [5]: 0.03
fold change (FC) [6]: 0.11
SMILES: CC(C)[C@H](NC(=O)c1cc(-c2cnn3cc(-c4ccc(OCCN5CCCCC5)cc4)cnc23)cs1)C(F)(F)F

inhibition [7]: 0%
inhibition [8]: 20%
inhibition [9]: 0%
fold change (FC) [10]: 0.01
fold change (FC) [11]: 0.05
fold change (FC) [12]: 0
fold change (FC) [13]: 0.07
SMILES: O=C(N[C@@H](C1CC1)C(F)(F)F)c1cc(-c2cnn3cc(-c4ccc(F)cc4)cnc23)cs1
